Data on seven compounds can be found in patent publication US20230286973A1, “PROTEIN SECRETION INHIBITORS” (KEZAR LIFE SCIENCES, priority 2020, published 2023).

Read-outs that look alike come from different tables or passages of the source. Some results are limits rather than exact numbers.

Broadly, the EC50 is the concentration needed to bring the measured effect to its halfway point.

Data set [1] relates to PD1-ss+10aa/Gaussia Luciferase. As to the kind of experiment: Dox-Induced PD1-ss-Gluc Assay. It counts as cell-based. Particulars: 24 hr Dox induction, 293FRT/TO cells, read-out: 24 hr Dox Inducible PD1ssGluc 293FRT/TO: Mean IC50. In short, it runs like this:
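Gaussia luciferase fused downstream of the PD1 signal peptide plus 10 residues was expressed on doxycycline induction in stably transfected Flp-In 293 T-REx cells. Compounds were added with doxycycline and incubated at 37 °C, 5% CO2.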

In data set [2] the test system is TNFα-FL/Gaussia Luciferase. As to the kind of experiment: Dox Induced TNFα-FL-Gluc Assay. To be noted: for IC50: 24 hr Dox induction, 293FRT/TO cells, read-out: 24 hr Dox Inducible TNFaFLGluc 293FRT/TO: Mean IC50; for 24 hr Dox Inducible TNFaFLGluc 293FRT/TO: TNF/PD1: ratio of TNFaFLGluc IC50 to PD1ssGluc IC50. It counts as cell-based. In short, it runs like this: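 Stereoisomer mixtures were tested where stereochemistry is not drawn. Induction used doxycycline added together with compound dilutions in DMSO/media to Flp-In 293 T-REx cells carrying a T-REx-regulated TNFα (aa 1-233)-Gaussia luciferase construct, then incubated at 37 °C, 5% CO2.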

Data set [3] has as its system HER3-ss+4aa/Gaussia Luciferase. Kind of data set: Dox-Induced Her3-ss-Gluc Assay. It counts as cell-based. Particulars: 24 hr Dox induction, 293FRT/TO cells, read-out: 24 hr Dox Inducible Her3(ss + 4)Gluc 293FRT/TO: Mean IC50. In short, it runs like this: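 Cells were seeded a day ahead, then given compound diluted in DMSO/media with doxycycline to induce expression of the HER3 signal sequence (+4 aa)–Gaussia luciferase fusion. Incubation was at 37° C., 5% CO2, in a stable Flp-In 293 T-REx line.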

The subject of data set [4] is IL-2-FL/Gaussia Luciferase. Kind of data set: Dox Induced IL2-FL-Gluc Assay. It counts as cell-based. To be noted: for IC50: 24 hr Dox induction, 293FRT/TO cells, read-out: 24 hr Dox Inducible IL2FLGluc 293FRT/TO: Mean IC50; for 24 hr Dox Inducible IL2FLGluc 293FRT/TO: IL2/PD1: ratio of IL2FLGluc IC50 to PD1ssGluc IC50. An outline of the steps: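 Cells are plated one day ahead, then receive compound dilutions in DMSO/media with doxycycline and incubate at 37° C, 5% CO2. They are Flp-In 293 T-REx cells expressing a full-length IL-2 (amino acids 1-153)–Gaussia luciferase fusion under T-REx control.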

Data set [5] relates to multiple myeloma cell line NCI-H929. As to the kind of experiment: H929 Cell Viability Assay. It counts as cell-based, human. Particulars: Homo sapiens, NCI-H929, 48 h, NCI-H929 cells, Celltiter-Glo. An outline of the steps: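 Luminescent ATP detection (CellTiter-Glo) after 48 hours of compound exposure measures viability. Cells were plated in RPMI 1640 containing 10% fetal bovine serum and kept at 37° C under 5% CO2.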
(In general: In ATP-based viability assays light output follows the ATP content of the culture.)

Data set [6] concerns multiple myeloma cell line U266B1. Kind of data set: U266 Cell Viability Assay. It counts as cell-based, human. Particulars: Homo sapiens, U-266, 48 h, U266B1 cells, Celltiter-Glo. In short, it runs like this:
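Steps: culture in RPMI 1640 plus 10% FBS and 2 mM glutamine; plate and add compound dilutions; incubate 48 hours at 37° C., 5% CO2; add CellTiter-Glo and quantify luciferase signal.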

Data set [7] can be described thus: Liver Microsome Stability Assay (rat). To be noted: rat liver microsomes, with NADPH, 1.0 uM compound. In general terms: Liver microsomes are a subcellular fraction often used to study metabolism.
Procedure: (§1) Stability of a compound was assessed in the presence of liver microsomes from various sources—mouse, rat, monkey and human liver microsomes. 1.0 uM compound, 0.4% DMSO in 0.1 M Potassium Phosphate with 1.0 mg/mL liver microsomes, were incubated at 37° C. with or without 1 mM NADPH. The samples were quenched at 0, and 30 minutes.
The nature of data set [8]: Liver Microsome Stability Assay (mouse). Particulars: mouse liver microsomes, with NADPH, 1.0 uM compound.
Procedure: as §1
The nature of data set [9]: Liver Microsome Stability Assay (human). To be noted: human liver microsomes, with NADPH, 1.0 uM compound.
Procedure: as §1
Data set [10] can be described thus: Liver Microsome Stability Assay (monkey). Particulars: monkey liver microsomes, with NADPH, 1.0 uM compound.
Procedure: as §1
Setting [11] is: '<=>' given where both are I.A.

In the case of `O=C(Nc1nc(/C=C/c2c[nH]cn2)cs1)c1cccn1Cc1ccnc(F)c1` [Compound B114, (E)-N-(4-(2-(1H-imidazol-4-yl)vinyl)thiazol-2-yl)-1-((2-fluoropyridin-4-yl)methyl)-1H-pyrrole-2-carboxamide], the IC50 in data set [1] is 5.26 µM; in [2] it was over 25 µM; in data set [3] it was over 25 µM; in data set [4] it was over 25 µM. The “24 hr Dox Inducible TNFaFLGluc 293FRT/TO: TNF/PD1” value in data set [2] is listed as over 4.76. Further, in data set [4], the “24 hr Dox Inducible IL2FLGluc 293FRT/TO: IL2/PD1” value is reported as over 4.8. In addition, the EC50 in [5] and in data set [6] was over 25 µM in each case. Also, the “Liver Microsome Stability (Multiple Species): Rat - % Remaining after 30 min w/NADPH” value in [7] was determined as 27.3%. The “Liver Microsome Stability (Multiple Species): Mouse - % Remaining after 30 min w/NADPH” value in [8] came to 59.3%. The “Liver Microsome Stability (Multiple Species): Human - % Remaining after 30 min w/NADPH” value in [9] came to 30.7%. Further, in [10], the “Liver Microsome Stability (Multiple Species): Monkey - % Remaining after 30 min w/NADPH” value amounted to 43.4%.

Take `NC(=O)Cn1cnc(/C=C/c2csc(NC(=O)c3cccn3Cc3ccnc(F)c3)n2)c1` [Compound B115]: the IC50 in data set [1], in data set [2], in [3] and in data set [4] was over 25 µM each time. Further, the “24 hr Dox Inducible TNFaFLGluc 293FRT/TO: TNF/PD1” value in data set [2] was “<=>1.00”. Moreover, in data set [4], the “24 hr Dox Inducible IL2FLGluc 293FRT/TO: IL2/PD1” value was “<=>1.0”. Besides, the EC50 in data set [5] and in data set [6] was over 25 µM each time. Further, in data set [7], the “Liver Microsome Stability (Multiple Species): Rat - % Remaining after 30 min w/NADPH” value is given as 30%. Further, the “Liver Microsome Stability (Multiple Species): Mouse - % Remaining after 30 min w/NADPH” value in data set [8] was found to be 70.7%. For the same compound, the “Liver Microsome Stability (Multiple Species): Human - % Remaining after 30 min w/NADPH” value in data set [9] was 12.8%. Moreover, the “Liver Microsome Stability (Multiple Species): Monkey - % Remaining after 30 min w/NADPH” value in data set [10] came out at 11.5%.

With `Cc1c(/C=C/c2csc(NC(=O)c3cccn3Cc3ccnc(F)c3)n2)ncn1C(C)C` [Compound B116, (E)-1-((2-fluoropyridin-4-yl)methyl)-N-(4-(2-(1-isopropyl-5-methyl-1H-imidazol-4-yl)vinyl)thiazol-2-yl)-1H-pyrrole-2-carboxamide], the IC50 in data set [1] (mean) stood at 0.0105 µM; in [2] (mean), 18.8 µM; in [3] (mean) it was 3.69 µM; in [4] (mean) it was 5.27 µM. Further, the “24 hr Dox Inducible TNFaFLGluc 293FRT/TO: TNF/PD1” value in data set [2] (setting [11]) is on record as 1780. In addition, in data set [4] (setting [11]), the “24 hr Dox Inducible IL2FLGluc 293FRT/TO: IL2/PD1” value is recorded as 500. Moreover, the concentration giving a half-maximal response (EC50) came out at 8.45 µM in data set [5] and 9.48 µM in [6]. Moreover, the “Liver Microsome Stability (Multiple Species): Rat - % Remaining after 30 min w/NADPH” value in data set [7] is recorded as 8.66%. The “Liver Microsome Stability (Multiple Species): Mouse - % Remaining after 30 min w/NADPH” value in data set [8] is listed as 11.3%. Besides, the “Liver Microsome Stability (Multiple Species): Human - % Remaining after 30 min w/NADPH” value in data set [9] was 0.16%. Further, in data set [10], the “Liver Microsome Stability (Multiple Species): Monkey - % Remaining after 30 min w/NADPH” value was 0.16%.

In the case of `CCn1cnc(/C=C/c2csc(NC(=O)c3cccn3Cc3ccnc(F)c3)n2)c1C` [Compound B117, (E)-N-(4-(2-(1-ethyl-5-methyl-1H-imidazol-4-yl)vinyl)thiazol-2-yl)-1-((2-fluoropyridin-4-yl)methyl)-1H-pyrrole-2-carboxamide], the IC50 in data set [1] (mean) is 0.0318 µM; in data set [2] (mean) it was 23.6 µM; in data set [3] (mean), over 25 µM; in data set [4] (mean), over 25 µM. In [2] (setting [11]), the “24 hr Dox Inducible TNFaFLGluc 293FRT/TO: TNF/PD1” value is listed as 743. The “24 hr Dox Inducible IL2FLGluc 293FRT/TO: IL2/PD1” value in data set [4] (setting [11]) is over 790. Besides, the EC50 is 16.9 µM in data set [5] and 21.2 µM in data set [6]. Besides, the “Liver Microsome Stability (Multiple Species): Rat - % Remaining after 30 min w/NADPH” value in data set [7] came to 4.95%. Moreover, in [8], the “Liver Microsome Stability (Multiple Species): Mouse - % Remaining after 30 min w/NADPH” value was 15.8%. Besides, in data set [9], the “Liver Microsome Stability (Multiple Species): Human - % Remaining after 30 min w/NADPH” value is given as 0.29%. Further, the “Liver Microsome Stability (Multiple Species): Monkey - % Remaining after 30 min w/NADPH” value in data set [10] came out at 0.22%.

As for `Cc1c(/C=C/c2csc(NC(=O)c3cccn3Cc3ccnc(F)c3)n2)ncn1C(C)CO` (stereo not drawn) [Compound B118, (E)-1-((2-fluoropyridin-4-yl)methyl)-N-(4-(2-(1-(1-hydroxypropan-2-yl)-5-methyl-1H-imidazol-4-yl)vinyl)thiazol-2-yl)-1H-pyrrole-2-carboxamide], the IC50 in [1] (mean) was 0.247 µM; in data set [2] (mean) it was over 25 µM; in [3] (mean), over 25 µM; in data set [4] (mean) it was over 25 µM. Also, the “24 hr Dox Inducible TNFaFLGluc 293FRT/TO: TNF/PD1” value in data set [2] (setting [11]) was over 101. The “24 hr Dox Inducible IL2FLGluc 293FRT/TO: IL2/PD1” value in [4] (setting [11]) is listed as over 100. For the same compound, the half-maximal effective concentration (EC50) in data set [5] and in data set [6] was over 25 µM throughout. In addition, in data set [7], the “Liver Microsome Stability (Multiple Species): Rat - % Remaining after 30 min w/NADPH” value is listed as 14.9%. In [8], the “Liver Microsome Stability (Multiple Species): Mouse - % Remaining after 30 min w/NADPH” value turned out to be 40.4%. The “Liver Microsome Stability (Multiple Species): Human - % Remaining after 30 min w/NADPH” value in data set [9] is listed as 0.37%. The “Liver Microsome Stability (Multiple Species): Monkey - % Remaining after 30 min w/NADPH” value in data set [10] is listed as 0.21%.

Turning to `CCOC(=O)C(C)n1cnc(/C=C/c2csc(NC(=O)c3cccn3Cc3ccnc(F)c3)n2)c1C` (stereo not drawn) [Compound B119, ethyl (E)-2-(4-(2-(2-(1-((2-fluoropyridin-4-yl)methyl)-1H-pyrrole-2-carboxamido)thiazol-4-yl)vinyl)-5-methyl-1H-imidazol-1-yl)propanoate], the IC50 amounted to 0.0511 µM in data set [1] (mean), 21.3 µM in data set [2] (mean), 8.9 µM in data set [3] (mean) and 10.1 µM in data set [4] (mean). Moreover, in [2] (setting [11]), the “24 hr Dox Inducible TNFaFLGluc 293FRT/TO: TNF/PD1” value is 418. Besides, the “24 hr Dox Inducible IL2FLGluc 293FRT/TO: IL2/PD1” value in [4] (setting [11]) is 200. Further, the results for the EC50 in data set [5] and in [6] were 13.1 µM and 15.6 µM, respectively. Further, the “Liver Microsome Stability (Multiple Species): Rat - % Remaining after 30 min w/NADPH” value in data set [7] turned out to be 0.7%. For the same compound, in data set [8], the “Liver Microsome Stability (Multiple Species): Mouse - % Remaining after 30 min w/NADPH” value is recorded as 2.37%. Moreover, in [9], the “Liver Microsome Stability (Multiple Species): Human - % Remaining after 30 min w/NADPH” value is given as 0.15%. Further, in data set [10], the “Liver Microsome Stability (Multiple Species): Monkey - % Remaining after 30 min w/NADPH” value is 0.1%.

As to `COC(=O)Cn1cnc(/C=C/c2csc(NC(=O)c3cccn3Cc3ccnc(F)c3)n2)c1C` [Compound B120, methyl (E)-2-(4-(2-(2-(1-((2-fluoropyridin-4-yl)methyl)-1H-pyrrole-2-carboxamido)thiazol-4-yl)vinyl)-5-methyl-1H-imidazol-1-yl)acetate], the IC50 in data set [1] (mean) was 2.69 µM; in data set [2] (mean) it was over 25 µM; in data set [3] (mean) it was over 25 µM; in data set [4] (mean), over 25 µM. Also, the “24 hr Dox Inducible TNFaFLGluc 293FRT/TO: TNF/PD1” value in [2] (setting [11]) was over 9.29. Also, the “24 hr Dox Inducible IL2FLGluc 293FRT/TO: IL2/PD1” value in data set [4] (setting [11]) is over 9.3. Besides, the EC50 in data set [5] and in data set [6] was over 25 µM throughout. The “Liver Microsome Stability (Multiple Species): Rat - % Remaining after 30 min w/NADPH” value in [7] is on record as 2.69%. Moreover, in data set [8], the “Liver Microsome Stability (Multiple Species): Mouse - % Remaining after 30 min w/NADPH” value came to 6.6%. Also, the “Liver Microsome Stability (Multiple Species): Human - % Remaining after 30 min w/NADPH” value in [9] came to 0.24%. In [10], the “Liver Microsome Stability (Multiple Species): Monkey - % Remaining after 30 min w/NADPH” value turned out to be 0.15%.
